# In patent US20120252748A1, “METHODS AND COMPOSITIONS FOR DETERMINING THE RESPONSIVENESS OF CANCER THERAPEUTICS” (New York University, priority 2011, published 2012):
# pIC50: −log10 of the molar value. “Also recorded” adds a separate entry of the source. Like-named read-outs stand apart in the source and are kept apart here.
# How the values were obtained:
# [1] = system: MCF-7 cells forced to express ACSL4; assay: Tamoxifen sensitivity of MCF-7 cells forced to express ACSL4; assay type: cell-based, human; conditions: forced ACSL4 expression in MCF-7, FIG. 16
# Method: (§1) An analysis was performed on breast cancer cell lines that are hormone receptor positive and positive for ACSL4 expression. […] In the present study, estrogen responsive MCF-7 cells, which are ACSL4-negative, were forced to express […]. […] The results were confirmed using conditional and stable transfection techniques.
# MDA-MB-231 cells = assay: Effect of triacsin C on relative cell number of MDA-MB-231 control and ACSL4 knockdown cells; assay type: cell-based, human; conditions: for pIC50: FIG. 7C, read-out: half-maximal inhibitory concentration
# Method: Relative differences in cell number were quantitated using the Cell Titer 96 AQueous Reagent purchased from Promega (Madison, Wis.). Protocols used were as described by the manufacturer.
# MDA-MB-231 cells were treated for 48 hours with either a control or ACSL4-specific siRNA. The siRNA was a SmartPool siRNA obtained from Dharmacon, consisting of 4 separate siRNAs.
# Next, the effect of triacsin C treatment on MDA-MB-231 control and knockdown cells were compared. […] Mashima et al., Cancer Sci., 100: 1556-1562 (2009).
# ACSL3 = ACSL3 (Rattus norvegicus, UniProt Q63151); conditions: Van Horn et al. 2005; cited from earlier work
# ACSL1 = target: T1, ACSL1 (Rattus norvegicus, UniProt P18163); conditions: cited from earlier work
# T1 sequence (P18163 1-699): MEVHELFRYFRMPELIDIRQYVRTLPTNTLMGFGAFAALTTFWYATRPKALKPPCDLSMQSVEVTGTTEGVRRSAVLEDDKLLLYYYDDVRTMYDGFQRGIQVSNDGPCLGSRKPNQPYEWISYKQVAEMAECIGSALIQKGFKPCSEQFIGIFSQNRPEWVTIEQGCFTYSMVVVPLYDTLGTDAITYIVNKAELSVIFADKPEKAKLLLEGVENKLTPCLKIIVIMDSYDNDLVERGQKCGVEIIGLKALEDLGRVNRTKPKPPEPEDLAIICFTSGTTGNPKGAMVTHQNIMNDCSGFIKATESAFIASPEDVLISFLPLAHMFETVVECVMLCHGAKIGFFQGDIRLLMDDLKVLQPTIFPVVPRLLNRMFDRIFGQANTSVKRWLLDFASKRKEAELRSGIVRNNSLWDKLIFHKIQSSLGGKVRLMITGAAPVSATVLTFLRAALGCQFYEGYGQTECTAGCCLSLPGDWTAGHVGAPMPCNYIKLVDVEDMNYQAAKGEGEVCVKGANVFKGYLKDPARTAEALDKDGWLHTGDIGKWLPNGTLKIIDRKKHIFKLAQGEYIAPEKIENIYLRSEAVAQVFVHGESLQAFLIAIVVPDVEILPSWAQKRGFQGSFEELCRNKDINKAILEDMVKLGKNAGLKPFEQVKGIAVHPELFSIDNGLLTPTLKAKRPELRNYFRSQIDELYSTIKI
# ACSL5 = target: T2, ACSL5 (Rattus norvegicus, UniProt O88813); conditions: Van Horn et al. 2005; cited from earlier work
# T2 sequence (O88813 1-683): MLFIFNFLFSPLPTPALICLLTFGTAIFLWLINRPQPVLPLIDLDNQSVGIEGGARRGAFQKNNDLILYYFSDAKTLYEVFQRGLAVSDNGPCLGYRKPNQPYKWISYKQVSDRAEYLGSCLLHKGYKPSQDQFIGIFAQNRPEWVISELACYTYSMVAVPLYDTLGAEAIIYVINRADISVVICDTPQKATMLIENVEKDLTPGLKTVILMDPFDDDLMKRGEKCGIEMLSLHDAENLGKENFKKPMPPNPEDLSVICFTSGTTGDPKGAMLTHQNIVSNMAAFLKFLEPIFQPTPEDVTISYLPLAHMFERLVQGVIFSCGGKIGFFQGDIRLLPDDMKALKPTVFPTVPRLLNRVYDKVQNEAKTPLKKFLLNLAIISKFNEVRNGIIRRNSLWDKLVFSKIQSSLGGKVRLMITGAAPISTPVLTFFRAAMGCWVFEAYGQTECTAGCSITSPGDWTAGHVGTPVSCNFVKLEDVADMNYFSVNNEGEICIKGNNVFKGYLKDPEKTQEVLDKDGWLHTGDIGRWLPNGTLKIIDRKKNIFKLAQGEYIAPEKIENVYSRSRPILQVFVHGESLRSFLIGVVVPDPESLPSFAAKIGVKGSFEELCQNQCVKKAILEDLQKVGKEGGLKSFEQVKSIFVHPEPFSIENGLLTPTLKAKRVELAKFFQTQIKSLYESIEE
# ACSL6 = conditions: Van Horn et al. 2005; cited from earlier work
# [2] = system: a variety of cancer cells; conditions: Mashima et al. 2009; cited from earlier work
# ACSL4 = ACSL4 (Rattus norvegicus, UniProt O35547); conditions: cited from earlier work
# MCF-7 cells = assay: Growth response to estrogen, MCF-7 cells; assay type: cell-based, human; conditions: MCF-7 (ER-positive, ACSL4-negative), versus estrogen-free control, FIG. 5, FIG. 6A
# Method: (§2) As indicated above in the results of Example 2, two cell lines which were ER-positive where also ACSL4-positive. A study comparing cell growth in the presence of estrogen of one of these cell lines (MDA-MB-415) to a cell line which is ER-positive and ACSL4 negative (MCF-7) was performed.
# (§3) Additionally, a study was performed in which cell growth in the presence of estrogen of the estrogen dependent MCF-7 cells, which are ACSL4 negative, were compared to modified MCF-7 cells, which were induced to express ACSL4.
# [3] = system: MCF-7 cells genetically manipulated to express ACSL4; assay: Growth response to estrogen, MCF-7 cells genetically manipulated to express ACSL4; assay type: cell-based, human; conditions: MCF-7 expressing ACSL4, versus estrogen-free conditions, FIG. 6B
# Method: as §3, §1
# MDA-MB-415 cells = assay: Growth response to estrogen, MDA-MB-415 cells; assay type: cell-based, human; conditions: MDA-MB-415 (ER-positive, ACSL4-positive), versus control without estrogen, FIG. 5
# Method: as §2
# Sequence of ACSL4 (O35547 whole entry): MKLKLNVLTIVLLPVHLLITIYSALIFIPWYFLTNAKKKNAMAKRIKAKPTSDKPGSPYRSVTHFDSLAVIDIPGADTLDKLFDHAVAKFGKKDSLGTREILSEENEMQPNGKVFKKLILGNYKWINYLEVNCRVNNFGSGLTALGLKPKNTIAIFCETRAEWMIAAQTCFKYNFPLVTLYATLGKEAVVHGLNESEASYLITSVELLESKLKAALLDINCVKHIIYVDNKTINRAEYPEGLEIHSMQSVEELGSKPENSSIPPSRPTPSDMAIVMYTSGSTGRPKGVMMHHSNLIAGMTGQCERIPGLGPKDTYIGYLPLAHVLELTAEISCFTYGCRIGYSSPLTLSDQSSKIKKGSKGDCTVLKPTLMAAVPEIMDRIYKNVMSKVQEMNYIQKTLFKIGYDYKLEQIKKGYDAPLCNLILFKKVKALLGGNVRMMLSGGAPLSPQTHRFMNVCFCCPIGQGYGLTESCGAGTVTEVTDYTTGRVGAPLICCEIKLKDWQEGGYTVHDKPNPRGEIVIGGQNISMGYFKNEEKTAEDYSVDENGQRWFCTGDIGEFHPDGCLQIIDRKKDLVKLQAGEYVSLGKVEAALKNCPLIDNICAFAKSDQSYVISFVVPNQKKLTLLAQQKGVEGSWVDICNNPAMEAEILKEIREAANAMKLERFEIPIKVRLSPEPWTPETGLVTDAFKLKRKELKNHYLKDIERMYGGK
# Sequence of ACSL3 (Q63151 whole entry): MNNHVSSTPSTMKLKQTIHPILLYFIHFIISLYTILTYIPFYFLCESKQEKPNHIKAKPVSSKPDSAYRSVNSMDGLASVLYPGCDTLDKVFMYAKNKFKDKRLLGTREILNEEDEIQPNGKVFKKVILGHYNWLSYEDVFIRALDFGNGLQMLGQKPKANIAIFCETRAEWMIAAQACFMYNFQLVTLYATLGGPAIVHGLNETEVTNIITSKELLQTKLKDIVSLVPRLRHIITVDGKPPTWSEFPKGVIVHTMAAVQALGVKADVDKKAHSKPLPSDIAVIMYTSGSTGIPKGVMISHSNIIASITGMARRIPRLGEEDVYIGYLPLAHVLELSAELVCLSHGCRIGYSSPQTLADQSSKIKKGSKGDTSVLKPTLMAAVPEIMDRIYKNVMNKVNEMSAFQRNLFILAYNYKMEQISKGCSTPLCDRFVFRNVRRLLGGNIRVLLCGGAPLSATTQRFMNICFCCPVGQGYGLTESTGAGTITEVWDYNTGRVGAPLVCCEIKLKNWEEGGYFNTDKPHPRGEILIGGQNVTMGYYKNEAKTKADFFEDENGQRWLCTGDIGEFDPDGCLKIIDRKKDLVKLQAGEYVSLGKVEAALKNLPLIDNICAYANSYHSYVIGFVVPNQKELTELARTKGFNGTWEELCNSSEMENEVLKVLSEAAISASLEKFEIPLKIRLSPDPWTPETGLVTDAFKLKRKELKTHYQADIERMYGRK
compound,measurement,setting,value
CC/C(=C(\c1ccccc1)c1ccc(OCCN(C)C)cc1)c1ccccc1 [tamoxifen],sensitivity to tamoxifen treatment,[1],decrease in the sensitivity
CCC/C=C/C/C=C/C=C/C=N/NN=O [triacsin C],increase in triacsin C sensitivity on ablation of ACSL4,MDA-MB-231 cells; ACSL4 knockdown versus control MDA-MB-231 cells,three-fold increase
same,pIC50,MDA-MB-231 cells; MDA-MB-231 ACSL4 knockdown cells (ACSL4-siRNA),6.25
same,pIC50,MDA-MB-231 cells; MDA-MB-231 control cells (control siRNA),5.80
same,inhibition of ACSL3,ACSL3,specific for inhibition
same,inhibition of ACSL1,ACSL1; Van Horn et al. 2005,specific for inhibition
same,relative sensitivity by reported half-maximal inhibitory concentration values,"ACSL1; ranking among ACSL1, 3 and 4",most sensitive
same,effect on the activity of ACSL5,ACSL5,little or no effect
same,effect on the activity of ACSL6,ACSL6,little or no effect
same,apoptosis of cancer cells,[2],induce apoptosis
same,proliferation of cancer cells,[2],inhibit proliferation
same,inhibition of ACSL4,ACSL4; Van Horn et al. 2005,specific for inhibition
same,relative sensitivity by reported half-maximal inhibitory concentration values,"ACSL4; ranking among ACSL1, 3 and 4",least sensitive
estrogen,growth response to estrogen,MCF-7 cells,significant growth response; also recorded: proliferative growth effect
same,growth response to estrogen,[3],became unresponsive to the proliferative effect; also recorded: loss of responsiveness
same,growth response to estrogen,MDA-MB-415 cells,no significant growth response; also recorded: no increase in cellular proliferation
